Test results as given in patent publication US10421774B2 (priority 2016, dated 2019).

Tests used:
Experiment in all cases: microbe, parasite or virus in culture
Type in all cases: cell-based, HIV-1
[1] = system: T332S/V362I/Pr R41G virus; conditions: Human immunodeficiency virus 1, MT2, read-out: T332S/V362I/pr41G EC50
Outline: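 Multiple-cycle susceptibility: MT-2 cells, 10,000 per well, exposed to 3-fold compound dilutions at 1% DMSO after infection with luciferase-normalized inoculum. Virus: NL4-3-derived Renilla reporter (Gag P373S) with Gag T332S/V362I and protease R41G. Readout Renilla luciferase after 4–5 days, 37 °C.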

[2] = system: NLRepRlucP373S recombinant wild type (WT) virus; conditions: Human immunodeficiency virus 1, MT2, read-out: WT EC50
Outline: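 Multiple-cycle assay: luciferase-normalized NL4-3-derived NLRepRlucP373S (Renilla luciferase in place of nef) infects MT-2 cells, 10,000 cells/well, with 3-fold compound dilutions at 1% DMSO, 4-5 days, 37 °C. EC50 and EC90 fitted by median effect equation against Renilla luminescence, with residual signal under 3 μM NFV as background.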

[3] = system: A364V site directed mutant virus; conditions: Human immunodeficiency virus 1, MT2, read-out: A364V EC50
Outline: (§1)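 Virus yield quantified by Renilla luciferase after 4–5 day culture at 37°C of MT-2 cells (10,000/well) with 3-fold serially diluted compound at 1% final DMSO. Reporter viruses were NL4-3 P373S derivatives bearing Gag A364V or V370A/ΔT371, inputs matched on luciferase endpoint.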

gag V370A/ΔT371 virus = conditions: Human immunodeficiency virus 1, MT2, read-out: V370A/ΔT371 EC50
Outline: as §1

| Compound | EC50 [1] | EC50 [2] | EC50 [3] | EC50 (gag V370A/ΔT371 virus) |
| --- | --- | --- | --- | --- |
| C=C(C)[C@@H]1CC[C@]2(NCC[C@]3(O)CC[C@H](S(C)(=O)=O)CC3)CC[C@]3(C)[C@H](CC[C@@H]4[C@@]5(C)CC=C(C6=CC[C@@](COc7ncccc7C#N)(C(=O)O)CC6)C(C)(C)[C@@H]5CC[C@]43C)[C@@H]12 [Example A4, (S)-1-(((3-cyanopyridin-2-yl)oxy)methyl)-4-((1R,3aS,5aR,5bR,7aR,11aS,11bR,13aR,13bR)-3a-((2-((1r,4S)-1-hydroxy-4-(methylsulfonyl)cyclohexyl)ethyl)amino)-5a,5b,8,8,11a-pentamethyl-1-(prop-1-en-2-yl)-2,3,3a,4,5,5a,5b,6,7,7a,8,11,11a,11b,12,13,13a,13b-octadecahydro-1H-cyclopenta[a]chrysen-9-yl)cyclohex-3-enecarboxylic acid] | 6 nM | 4 nM | 26 nM | 6 nM |
| C=C(C)[C@@H]1CC[C@]2(NCC[C@]3(O)CC[C@@H](S(C)(=O)=O)CC3)CC[C@]3(C)[C@H](CC[C@@H]4[C@@]5(C)CC=C(C6=CC[C@](COc7ncccc7C#N)(C(=O)O)CC6)C(C)(C)[C@@H]5CC[C@]43C)[C@@H]12 [Example A5, (R)-1-(((3-cyanopyridin-2-yl)oxy)methyl)-4-((1R,3aS,5aR,5bR,7aR,11aS,11bR,13aR,13bR)-3a-((2-((1s,4R)-1-hydroxy-4-(methylsulfonyl)cyclohexyl)ethyl)amino)-5a,5b,8,8,11a-pentamethyl-1-(prop-1-en-2-yl)-2,3,3a,4,5,5a,5b,6,7,7a,8,11,11a,11b,12,13,13a,13b-octadecahydro-1H-cyclopenta[a]chrysen-9-yl)cyclohex-3-enecarboxylic acid] | 3 nM | 2 nM | 6 nM | 3 nM |
| C=C(C)[C@@H]1CC[C@]2(NCC[C@]3(O)CC[C@H](S(C)(=O)=O)CC3)CC[C@]3(C)[C@H](CC[C@@H]4[C@@]5(C)CC=C(C6=CC[C@](COc7ncccc7C#N)(C(=O)O)CC6)C(C)(C)[C@@H]5CC[C@]43C)[C@@H]12 [Example A6, (R)-1-(((3-cyanopyridin-2-yl)oxy)methyl)-4-((1R,3aS,5aR,5bR,7aR,11aS,11bR,13aR,13bR)-3a-((2-((1r,4S)-1-hydroxy-4-(methylsulfonyl)cyclohexyl)ethyl)amino)-5a,5b,8,8,11a-pentamethyl-1-(prop-1-en-2-yl)-2,3,3a,4,5,5a,5b,6,7,7a,8,11,11a,11b,12,13,13a,13b-octadecahydro-1H-cyclopenta[a]chrysen-9-yl)cyclohex-3-enecarboxylic acid] | 8 nM | 2 nM | 5 nM | 8 nM |
| C=C(C)[C@@H]1CC[C@]2(NC[C@@H](O)CO)CC[C@]3(C)[C@H](CC[C@@H]4[C@@]5(C)CC=C(C6=CC[C@](COc7ncccc7C#N)(C(=O)O)CC6)C(C)(C)[C@@H]5CC[C@]43C)[C@@H]12 [Example A7, (R)-1-(((3-cyanopyridin-2-yl)oxy)methyl)-4-((1R,3aS,5aR,5bR,7aR,11aS,11bR,13aR,13bR)-3a-(((R)-2,3-dihydroxypropyl)amino)-5a,5b,8,8,11a-pentamethyl-1-(prop-1-en-2-yl)-2,3,3a,4,5,5a,5b,6,7,7a,8,11,11a,11b,12,13,13a,13b-octadecahydro-1H-cyclopenta[a]chrysen-9-yl)cyclohex-3-enecarboxylic acid] | 5 nM | 3 nM | 477 nM | 5 nM |
| C=C(C)[C@@H]1CC[C@]2(NC[C@@H](O)CO)CC[C@]3(C)[C@H](CC[C@@H]4[C@@]5(C)CC=C(C6=CC[C@](COc7ncccc7C(N)=O)(C(=O)O)CC6)C(C)(C)[C@@H]5CC[C@]43C)[C@@H]12 [Example A8, (R)-1-(((3-carbamoylpyridin-2-yl)oxy)methyl)-4-((1R,3aS,5aR,5bR,7aR,11aS,11bR,13aR,13bR)-3a-(((R)-2,3-dihydroxypropyl)amino)-5a,5b,8,8,11a-pentamethyl-1-(prop-1-en-2-yl)-2,3,3a,4,5,5a,5b,6,7,7a,8,11,11a,11b,12,13,13a,13b-octadecahydro-1H-cyclopenta[a]chrysen-9-yl)cyclohex-3-enecarboxylic acid] | 23 nM | 4 nM | 176 nM | 23 nM |
| C=C(C)[C@@H]1CC[C@]2(NC[C@@H](O)COC)CC[C@]3(C)[C@H](CC[C@@H]4[C@@]5(C)CC=C(C6=CC[C@](COc7ncccc7C#N)(C(=O)O)CC6)C(C)(C)[C@@H]5CC[C@]43C)[C@@H]12 [Example A9, (R)-1-(((3-cyanopyridin-2-yl)oxy)methyl)-4-((1R,3aS,5aR,5bR,7aR,11aS,11bR,13aR,13bR)-3a-(((R)-2-hydroxy-3-methoxypropyl)amino)-5a,5b,8,8,11a-pentamethyl-1-(prop-1-en-2-yl)-2,3,3a,4,5,5a,5b,6,7,7a,8,11,11a,11b,12,13,13a,13b-octadecahydro-1H-cyclopentalalchrysen-9-yl)cyclohex-3-enecarboxylic acid] | 12 nM | 3 nM | 300 nM | 12 nM |
| C=C(C)[C@@H]1CC[C@]2(NC[C@H](O)COC)CC[C@]3(C)[C@H](CC[C@@H]4[C@@]5(C)CC=C(C6=CC[C@](COc7ncccc7C#N)(C(=O)O)CC6)C(C)(C)[C@@H]5CC[C@]43C)[C@@H]12 [Example A11, (R)-1-(((3-cyanopyridin-2-yl)oxy)methyl)-4-((1R,3aS,5aR,5bR,7aR,11aS,11bR,13aR,13bR)-3a-(((S)-2-hydroxy-3-methoxypropyl)amino)-5a,5b,8,8,11a-pentamethyl-1-(prop-1-en-2-yl)-2,3,3a,4,5,5a,5b,6,7,7a,8,11,11a,11b,12,13,13a,13b-octadecahydro-1H-cyclopentalalchrysen-9-yl)cyclohex-3-enecarboxylic acid] | 17 nM | 11 nM | 281 nM | 17 nM |
| C=C(C)[C@@H]1CC[C@]2(NC[C@H](O)COC)CC[C@]3(C)[C@H](CC[C@@H]4[C@@]5(C)CC=C(C6=CC[C@](COc7ncccc7C(N)=O)(C(=O)O)CC6)C(C)(C)[C@@H]5CC[C@]43C)[C@@H]12 [Example A12, (R)-1-(((3-carbamoylpyridin-2-yl)oxy)methyl)-4-((1R,3aS,5aR,5bR,7aR,11aS,11bR,13aR,13bR)-3a-(((S)-2-hydroxy-3-methoxypropyl)amino)-5a,5b,8,8,11a-pentamethyl-1-(prop-1-en-2-yl)-2,3,3a,4,5,5a,5b,6,7,7a,8,11,11a,11b,12,13,13a,13b-octadecahydro-1H-cyclopenta[a]chrysen-9-yl)cyclohex-3-enecarboxylic acid] | 59 nM | 2 nM | 69 nM | 59 nM |
| C=C(C)[C@@H]1CC[C@]2(NC[C@@](C)(O)CO)CC[C@]3(C)[C@H](CC[C@@H]4[C@@]5(C)CC=C(C6=CC[C@](COc7ncccc7C#N)(C(=O)O)CC6)C(C)(C)[C@@H]5CC[C@]43C)[C@@H]12 [Example A13, (R)-1-(((3-cyanopyridin-2-yl)oxy)methyl)-4-((1R,3aS,5aR,5bR,7aR,11aS,11bR,13aR,13bR)-3a-(((R)-2,3-dihydroxy-2-methylpropyl)amino)-5a,5b,8,8,11a-pentamethyl-1-(prop-1-en-2-yl)-2,3,3a,4,5,5a,5b,6,7,7a,8,11,11a,11b,12,13,13a,13b-octadecahydro-1H-cyclopentalalchrysen-9-yl)cyclohex-3-enecarboxylic acid] | 27 nM | 2 nM | 831 nM | 27 nM |
| C=C(C)[C@@H]1CC[C@]2(NC[C@@](C)(O)CO)CC[C@]3(C)[C@H](CC[C@@H]4[C@@]5(C)CC=C(C6=CC[C@](COc7ncccc7C(N)=O)(C(=O)O)CC6)C(C)(C)[C@@H]5CC[C@]43C)[C@@H]12 [Example A14, (R)-1-(((3-carbamoylpyridin-2-yl)oxy)methyl)-4-((1R,3aS,5aR,5bR,7aR,11aS,11bR,13aR,13bR)-3a-(((R)-2,3-dihydroxy-2-methylpropyl)amino)-5a,5b,8,8,11a-pentamethyl-1-(prop-1-en-2-yl)-2,3,3a,4,5,5a,5b,6,7,7a,8,11,11a,11b,12,13,13a,13b-octadecahydro-1H-cyclopenta[a]chrysen-9-yl)cyclohex-3-enecarboxylic acid] | 110 nM | 5 nM | 114 nM | 110 nM |
| C=C(C)[C@@H]1CC[C@]2(NC[C@@H](O)C(=O)O)CC[C@]3(C)[C@H](CC[C@@H]4[C@@]5(C)CC=C(C6=CC[C@](COc7ncccc7C#N)(C(=O)O)CC6)C(C)(C)[C@@H]5CC[C@]43C)[C@@H]12 [Example A15, (R)-4-((1R,3aS,5aR,5bR,7aR,11aS,11bR,13aR,13bR)-3a-(((R)-2-carboxy-2-hydroxyethyl)amino)-5a,5b,8,8,11a-pentamethyl-1-(prop-1-en-2-yl)-2,3,3a,4,5,5a,5b,6,7,7a,8,11,11a,11b,12,13,13a,13b-octadecahydro-1H-cyclopenta[a]chrysen-9-yl)-1-(((3-cyanopyridin-2-yl)oxy)methyl)cyclohex-3-enecarboxylic acid] | 10 nM | 3 nM | 794 nM | 10 nM |
